Reference: patent US20210032257A1, “(E)-1-(4-(DIMETHYLAMINO)BUT-2-ENOYL)PYRROLIDIN-3-YL 4-((3-ISOPROPYL-5-METHYLPYRAZOLO[1,5-A]PYRIMIDIN-7-YL)AMINO)PIPERIDINE-1-CARBOXYLATE FOR INHIBITING CDK7” (Eli Lilly and Company, priority 2017, published 2021)

Legend:
CDK9/cyclinT1 = CDK9/cyclinT1 (Homo sapiens, UniProt P50750); test: Assay for inhibition of CDK9/CyclinT1 kinase activity (radiolabel filter binding)
[1] = system: phospho-carboxyl terminal domain (Ser2) in HCT116 cells; test: p-CTD (S2) cell based Acumen assay; settings: Homo sapiens, HCT-116, 4 hours, read-out: relative IC50 for phosphoCTD (S2)
Description: (§1) HCT116 cells (ATCC CCL-247) are cultured in McCoy's 5A Medium Modified media supplemented with 10% FBS, 1% NaPyr and 1% Pen/Strep and plated (prior to becoming 70% confluent) in 96-well flat-bottom plates at a density of 5,000 cells per well in 100 μL volume. The cells are then incubated overnight in a cell culture incubator (5% CO2, 95% Relative Humidity (RH) and 37° C.) and allowed to attach to the plate. The following morning the cells are dosed with compounds. Compound inhibitors are first solubilized at 60 μM in culture medium containing 0.6% DMSO. Subsequently compound serial dilutions (1:3) are prepared over a 6 μM to 0.00 μM range. […]
The following day cells are washed three times with PBS (100 μL/well) and incubated with 50 μL/well of secondary antibody (1:2000 dilution, Goat anti-rabbit IgM ALEXA FLUOR™ 488) in PBS for 1 hour at RT. […] Plates are analyzed on Acumen on FL2 (mean intensity), and FL3 (total intensity). Fluorescence plates are scanned with ACUMEN EXPLORER™ [Laser-scanning fluorescence microplate cytometer manufactured by TTP LABTECH LTD] to measure anti-phospho-carboxyl terminal domain at Serine 2 (pCTD). […]
The IC50 is determined by curve fitting to a four parameter logistic for each output using GENE DATA™.

[2] = system: phospho-carboxyl terminal domain (Ser5) in HCT116 cells; test: p-CTD (S5) cell based Acumen assay; settings: Homo sapiens, HCT-116, 4 hours, read-out: Relative IC50 for pCTD Ser5
Description: as §1, with “are” for “are then”, “following morning,” for “following morning”, “are” for “are first”, “a 60” for “a 6”, “to 0.003” for “to 0.00”
The following day cells are washed three times with PBS (100 μL/well) and incubated with 50 μL/well of secondary antibody (1:2000 dilution, Goat anti-rabbit IgM ALEXA FLUOR™ 488) in PBS for 1 hour at room temperature. […] Plates are analyzed on Acumen on FL2 (mean intensity), and FL3 (total intensity). Fluorescence plates are scanned with ACUMEN EXPLORER™ [Laser-scanning fluorescence microplate cytometer manufactured by TTP LABTECH LTD] to measure anti-phospho-carboxyl terminal domain at Serine 5 (pCTD). […] The IC50 is determined by curve fitting to a four parameter logistic for each output using GENE DATA™.

CDK7/CyclinH/Mat1 = CDK7/CyclinH/Mat1 (Homo sapiens, UniProt P50613); test: Biochemical assay for inhibition of CDK7/CyclinH/MAT1 (radiolabel filter binding)
cMyc in HCT116 cells = test: cMyc cell based Acumen assay; settings: Homo sapiens, HCT-116, 4 hours, read-out: Relative IC50 for cMyc

CDK7/CyclinH/Mat1, sequence (P50613 whole entry): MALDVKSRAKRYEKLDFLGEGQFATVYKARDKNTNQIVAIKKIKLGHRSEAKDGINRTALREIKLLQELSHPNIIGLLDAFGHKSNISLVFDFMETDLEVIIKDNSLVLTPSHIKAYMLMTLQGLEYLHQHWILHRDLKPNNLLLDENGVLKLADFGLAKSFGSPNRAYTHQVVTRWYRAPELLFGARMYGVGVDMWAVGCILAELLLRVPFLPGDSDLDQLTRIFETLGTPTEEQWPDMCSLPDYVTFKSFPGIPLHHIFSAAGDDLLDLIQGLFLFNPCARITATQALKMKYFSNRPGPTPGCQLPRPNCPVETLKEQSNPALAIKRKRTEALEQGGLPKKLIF
CDK7/CyclinH/Mat1, sequence (P51946 whole entry partner): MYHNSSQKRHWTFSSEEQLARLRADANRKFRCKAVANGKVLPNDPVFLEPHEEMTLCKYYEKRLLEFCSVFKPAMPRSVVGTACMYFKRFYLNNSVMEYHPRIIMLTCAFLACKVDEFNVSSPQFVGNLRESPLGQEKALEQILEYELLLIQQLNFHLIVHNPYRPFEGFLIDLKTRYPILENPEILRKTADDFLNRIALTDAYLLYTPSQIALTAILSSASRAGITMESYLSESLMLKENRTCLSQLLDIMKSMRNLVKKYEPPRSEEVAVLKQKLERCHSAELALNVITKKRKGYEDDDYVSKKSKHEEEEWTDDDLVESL
CDK7/CyclinH/Mat1, sequence (P51948 whole entry partner): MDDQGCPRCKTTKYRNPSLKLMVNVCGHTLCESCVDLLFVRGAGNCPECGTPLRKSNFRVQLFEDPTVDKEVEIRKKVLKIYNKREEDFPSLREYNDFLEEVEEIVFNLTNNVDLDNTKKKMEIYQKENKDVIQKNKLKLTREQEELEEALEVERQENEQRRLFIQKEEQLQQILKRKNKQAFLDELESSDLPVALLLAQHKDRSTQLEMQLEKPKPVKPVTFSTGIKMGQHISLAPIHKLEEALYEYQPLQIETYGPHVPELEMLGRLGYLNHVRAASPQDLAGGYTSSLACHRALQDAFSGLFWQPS
CDK9/cyclinT1, sequence (P50750 whole entry, the tested form may be a part): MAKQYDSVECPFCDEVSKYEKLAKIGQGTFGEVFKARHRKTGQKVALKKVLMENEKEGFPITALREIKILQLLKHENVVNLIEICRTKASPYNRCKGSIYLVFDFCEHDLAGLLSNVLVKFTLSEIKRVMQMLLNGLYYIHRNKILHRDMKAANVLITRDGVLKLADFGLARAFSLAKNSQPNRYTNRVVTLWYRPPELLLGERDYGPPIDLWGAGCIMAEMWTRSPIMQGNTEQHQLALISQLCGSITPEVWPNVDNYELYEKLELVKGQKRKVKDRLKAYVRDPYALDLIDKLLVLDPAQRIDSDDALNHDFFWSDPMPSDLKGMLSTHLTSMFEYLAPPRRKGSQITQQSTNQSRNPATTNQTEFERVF
CDK9/cyclinT1, sequence (O60563 whole entry partner, the tested form may be a part): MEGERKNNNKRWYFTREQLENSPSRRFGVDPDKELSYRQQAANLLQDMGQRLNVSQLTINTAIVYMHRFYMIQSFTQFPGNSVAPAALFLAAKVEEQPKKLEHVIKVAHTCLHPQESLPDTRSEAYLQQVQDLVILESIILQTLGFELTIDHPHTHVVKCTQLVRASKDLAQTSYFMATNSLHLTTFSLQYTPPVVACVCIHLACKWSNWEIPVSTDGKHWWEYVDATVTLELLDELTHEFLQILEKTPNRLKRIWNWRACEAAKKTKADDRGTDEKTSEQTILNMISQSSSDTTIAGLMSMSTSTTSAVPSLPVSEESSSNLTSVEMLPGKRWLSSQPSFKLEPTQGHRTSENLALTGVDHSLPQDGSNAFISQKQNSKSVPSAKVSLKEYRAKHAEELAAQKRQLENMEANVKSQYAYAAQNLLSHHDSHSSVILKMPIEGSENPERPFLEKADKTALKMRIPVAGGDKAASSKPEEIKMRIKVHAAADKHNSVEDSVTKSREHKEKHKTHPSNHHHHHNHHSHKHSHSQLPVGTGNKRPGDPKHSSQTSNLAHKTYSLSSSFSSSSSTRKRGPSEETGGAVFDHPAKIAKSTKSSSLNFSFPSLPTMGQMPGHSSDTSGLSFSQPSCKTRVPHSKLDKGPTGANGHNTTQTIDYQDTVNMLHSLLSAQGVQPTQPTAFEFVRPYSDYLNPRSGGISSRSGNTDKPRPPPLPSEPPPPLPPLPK

IC50 (CDK9/cyclinT1): 2450 nM
IC50 [1]: 3520 nM
IC50 [2]: 198 nM
IC50 (CDK7/CyclinH/Mat1; IC50 in CDK7, 3 hours of preincubation of CDK7 enzyme): 5.06 nM
IC50 (CDK7/CyclinH/Mat1; IC50 in CDK7, without preincubation): 48.7 nM
IC50 (cMyc in HCT116 cells): 57.3 nM
SMILES: Cc1cc(NC2CCN(C(=O)O[C@@H]3CCN(C(=O)/C=C/CN(C)C)C3)CC2)n2ncc(C(C)C)c2n1 [Example 3, [(3R)-1-[(E)-4-(dimethylamino)but-2-enoyl]pyrrolidin-3-yl] 4-[(3-isopropyl-5-methyl-pyrazolo[1,5-a]pyrimidin-7-yl)amino]piperidine-1-carboxylate]
